From patent publication EP2667887B1, “PHARMACEUTICAL COMPOSITION COMPRISING THE PEPTIDE GLU-ASP-GLY AND USE FOR TREATING HELICOBACTER PYLORI INDUCED GASTRODUODENAL DISEASES” («Garmonia», Ltd., priority 2011, dated 2012)

Legend:
[1] = system: modeled ulcer; assay: Morphology study of the induced gastric ulcer (cysteamine-HCL + Helicobacter pylori); assay type: in vivo, Sprague Dawley rats; details: treatment daily for 5 days, Klacid 10 mg intramuscularly
Protocol: The study was carried out on 90 male Sprague Dawley rats (180-220 g) randomly subdivided into 9 groups (10 animals per group): • Group 1 - intact rats (saline solution) • Group 2 - modeled ulcer + saline solution • Group 3 (6 subgroups) - modeled ulcer + H-Glu-Asp-Gly-OH • Group 4 - modeled ulcer + Klacid antibiotic
Ulcer was modeled by three-time administration (in 4 hours) in the rat stomach of cysteamine-HCL (Aldrich, Milwannee, WI) by means of a probe in the dose of 25 mg per 100 g of body weight. The ulcer, approximately 28 mm^2 in size, appeared at the boundary between antral and fundal segments of the stomach 12 hours after the last administration. Simultaneously with the first administration of cysteamine-HCL a Helicobacter pylori culture (Curtin Matheson Scientific Inc, strain Cag J117, 100 microbial cells) was administered in the rat stomach through the same probe.
(§1) A means on the basis of the pharmaceutical composition comprising the studied peptide H-Glu-Asp-Gly-OH was administered subcutaneously in the dose of 1 µg per kg of animal body weight (group 3a), 2,5 µg per kg of body weight (group 3b) and 10 µg per kg of body weight (group 3c) in 0,5 ml of saline solution daily, for 5 days from the occurrence of the stomach ulcer.
as §1, with “The means” for “A means”, “administered intragastrically (through a probe)” for “administered subcutaneously”, “(group 3d),” for “(group 3a),”, “(group 3e)” for “(group 3b)”, “(group 3f)” for “(group 3c)”
Antibiotic Klacid (clarithromycin, Abbott) was administered intramuscularly in the dose of 10 mg in 1 ml of saline solution daily for 5 days from the occurrence of the stomach ulcer.
Material for study was taken from ulcer edge on the 7th day (for western blot assay and polymerase chain reaction in real time - RT-PCR), as well as on the 7th, 15th and 21st day for morphology study and confocal microscopy.
For a morphology study, pieces of gastric mucous membrane from the ulcer edge were fixed in 10% neutral formalin (pH 7.2), then the material was dried out in a Leica TP1020 automatic station (Leica) and covered with paraffin. 5 µm thick paraffin slices were placed on object plates covered with a poly-L-lysine film (Sigma). For a visual study the slices were stained with hematoxylin and eosin, as well as with picrofuxin by the van Gison method.

[2] = system: human gastric epithelium cells SGC7901; assay: Effect on Helicobacter pylori-induced mitochondrial mechanisms of apoptosis in gastric epitheliocytes (mito-GFP confocal microscopy); assay type: cell-based; details: Klacid 500 ng/mL as positive control, same conditions as peptide 10 µM
Protocol: To evaluate the biological activity and effects of peptide H-Glu-Asp-Gly-OH on mitochondrial mechanisms of apoptosis in gastric epitheliocytes, induced by Helicobacter pylori germs, human gastric epithelium cells SGC7901 were studied. The cells were cultivated at 37°C in a damp incubation medium containing 50 mL/L CO2 in DMEM (Dulbecco's Modified Eagle's Medium, ICN Biomedicals) and 10% calf embryonic serum. A preliminary separation of cells for passaging was carried out in the ratio of 1:3-1:5 using a mixture of 0.125% trypsin, 0.02M EDTA (ethylenediaminetetraacetic acid), 0.02% glucose dissolved in a phosphate buffer. The cells were placed on a 24-well plate in the amount of 10^6 cells per well. The cells were passaged in a cultivation medium for 5 days and then taken for study.
On the 5th day after the beginning of cell passaging the peptide H-Glu-Asp-Gly-OH in the dose of 10 µM was administered in the cultivation medium, and in 30 minutes of incubation the cells were taken for study. Klacid antibiotic (clarithromycin, Abbott) in the dose of 500 ng/mL was administered to the cultures in the same conditions as positive control. […]
The status of isolated mitochondria was evaluated using immunofluorescent confocal laser microscopy. […]
Confocal microscopy of mitochondria with optical density evaluation was performed in an inverted confocal microscope Olympus Fluoview CM FV300-IX70 using an apochromatic lens 606 UPlan (Olympus). A 488 nm excitation wave of argon laser was used in each chamber to specify mito-GFP fluorescence that verifies the structure of mitochondria.

CC[C@H]1OC(=O)[C@H](C)[C@@H](O[C@H]2C[C@@](C)(OC)[C@@H](O)[C@H](C)O2)[C@H](C)[C@@H](O[C@@H]2O[C@H](C)C[C@H](N(C)C)[C@H]2O)[C@](C)(OC)C[C@@H](C)C(=O)[C@H](C)[C@@H](O)[C@]1(C)O [Klacid, clarithromycin]
ulcer pathomorphosis, 7th day ([1]; 7th day after ulcer induction, peptide 1, 2,5, 10 µg/kg subcutaneously or intragastrically): largely similar to the changes in Group 3 | ulcer pathomorphosis, 15th day ([1]; 15th day after ulcer induction, peptide 1, 2,5, 10 µg/kg subcutaneously or intragastrically): The same changes were observed | ulcer pathomorphosis, 21st day ([1]; 21st day after ulcer induction, peptide both methods of administration and three dosages): caused the same changes | biological activity (prevention of Helicobacter pylori-induced mitochondrial apoptosis disorder) relative to the peptide composition [2]: comparable in terms of efficiency
